# Data: ChEMBL document CHEMBL3994566 (Medchemcomm, 2016)
# Tests used:
# [1] = tested on: CCR5; assay: Selectivity index, ratio of CC50 for human TZM-bl cells to EC50 for CCR5 in human TZM-bl cells infected with CCR5-tropic HIV-1 Bal assessed as inhibition of viral entry; type: toxicity, cell-based; details: read-out: Ratio CC50/EC50
# [2] = Binding affinity to HIV1 integrase by surface plasma resonance method; design: species or system Human immunodeficiency virus
# [3] = tested on: TZM; assay: Cytotoxicity against human TZM-bl cells after 3 days by XTT assay; type: cell-based; details: 72 h
SMILES,selectivity ratio [1],Kd [2],Activity [3]
CC(=O)Oc1ccc(/C=C/C(=O)CCc2ccc(NC(=O)c3ccc(C)cc3)cc2)cc1OC(C)=O,2,,
CC(=O)Oc1ccc(CCC(=O)CCc2ccc(NC(=O)c3ccc([N+](=O)[O-])cc3)cc2)cc1OC(C)=O,15,,
Cc1ccc(C(=O)Nc2ccc(CCC(=O)/C=C/c3ccc(O)c(O)c3)cc2)cc1,< 1,,
Cc1ccc(C(=O)Nc2ccc(CCC(=O)CCc3ccc(O)c(O)c3)cc2)cc1,5,,
COc1ccc(C(=O)Nc2ccc(CCC(=O)CCc3ccc(OC(C)=O)c(OC(C)=O)c3)cc2)cc1,21,,
CC(=O)Oc1ccc(/C=C/C(=O)CCc2ccc(NC(=O)c3ccc([N+](=O)[O-])cc3)cc2)cc1OC(C)=O,5,,
O=C(/C=C/c1ccc(O)c(O)c1)CCc1ccc(NC(=O)C2CCCCC2)cc1,< 3,89.8 µM,
O=C(CCc1ccc(NC(=O)Cc2cccs2)cc1)CCc1ccc(O)c(O)c1,8,,
O=C(CCc1ccc(NC(=O)c2ccccc2)cc1)CCc1ccc(O)c(O)c1,26,110 µM,
O=C(/C=C/c1ccc(O)c(O)c1)CCc1ccc(NC(=O)Cc2cccs2)cc1,< 2,61.3 µM,
COc1ccc(C(=O)Nc2ccc(CCC(=O)/C=C/c3ccc(OC(C)=O)c(OC(C)=O)c3)cc2)cc1,12,,
O=C(/C=C/c1ccc(O)c(O)c1)CCc1ccc(NC(=O)c2ccc([N+](=O)[O-])cc2)cc1,< 1,,
O=C(CCc1ccc(NC(=O)C2CCCCC2)cc1)CCc1ccc(O)c(O)c1,10,80.9 µM,
CC(=O)Oc1ccc(CCC(=O)CCc2ccc(NC(=O)C3CCCCC3)cc2)cc1OC(C)=O,14,,
CC(=O)Oc1ccc(CCC(=O)CCc2ccc(NC(=O)c3ccc(C)cc3)cc2)cc1OC(C)=O,9,,
CC(=O)Oc1ccc(/C=C/C(=O)CCc2ccc(NC(=O)C3CCCCC3)cc2)cc1OC(C)=O,5,,
COc1ccc(C(=O)Nc2ccc(CCC(=O)CCc3ccc(O)c(O)c3)cc2)cc1,< 5,,
CC(=O)Oc1ccc(CCC(=O)CCc2ccc(NC(=O)c3ccccc3)cc2)cc1OC(C)=O,110,2.4 µM,Non-Toxic
O=C(/C=C/c1ccc(O)c(O)c1)CCc1ccc(NC(=O)c2ccccc2)cc1,< 1,164 µM,
CC(=O)Oc1ccc(CCC(=O)CCc2ccc(NC(=O)Cc3cccs3)cc2)cc1OC(C)=O,17,,
COc1ccc(C(=O)Nc2ccc(CCC(=O)/C=C/c3ccc(O)c(O)c3)cc2)cc1,7,43.2 µM,
CC(=O)Oc1ccc(/C=C/C(=O)CCc2ccc(NC(=O)c3ccccc3)cc2)cc1OC(C)=O,< 5,,
CC(=O)Oc1ccc(/C=C/C(=O)CCc2ccc(NC(=O)Cc3cccs3)cc2)cc1OC(C)=O,< 1,,
O=C(CCc1ccc(NC(=O)c2ccc([N+](=O)[O-])cc2)cc1)CCc1ccc(O)c(O)c1,6,,
Cc1nnc(C(C)C)n1[C@@H]1C[C@H]2CC[C@@H](C1)N2CC[C@H](NC(=O)C1CCC(F)(F)CC1)c1ccccc1 [MARAVIROC],> 1e+06,,
